In this test the test system is CD8+ T cells from HLA-A2+ normal donors or HLA-A2+ melanoma patients. The test can be described thus: In vitro sensitization of human CD8+ T cells with TASA peptide-pulsed autologous DC, IFN-γ ELISA against peptide-pulsed T2 cells. It is filed as cell-based. The essentials:
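Autologous DC pulsed with 1 μM each TASA peptide pool for 4 h, then used at 10:1 T cell:DC to stimulate CD8+ T cells: twice weekly for normal donors (analysed day 12), once for melanoma patients (day 5). Responders cultured 24 h at 5:1 with T2 cells pulsed with 1 μM peptide or control; IFN-γ measured by ELISA.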
On the technique in general: In an ELISA, binding on a coated surface is turned into a signal by an enzyme label.

On to “EphA2: EphA2-derived peptide 883-891 pulsed onto DC or DC.IL12 (TLADFDPRV; listed as Homo sapiens)”, for which the “Specific CD8+ T cell Production of IFN-γ in Response to TASA” value (“Specific CD8+ T cell Production of IFN-γ” below) is, setting by setting: (donor Mel1, melanoma patient) “+ (Human responses were designated as + if T cell reactivity against T2 cells presenting the indicated peptide (IFN-γ ELISA) was >30 pg/ml and more than 2 fold higher than reactivity versus T2 cells pulsed with the negative control HIV-nef190-198 peptide)”; (donor Mel2, melanoma patient) “+ (Human responses were designated as + if T cell reactivity against T2 cells presenting the indicated peptide (IFN-γ ELISA) was >30 pg/ml and more than 2 fold higher than reactivity versus T2 cells pulsed with the negative control HIV-nef190-198 peptide)”; (donor Mel3, melanoma patient) “+ (Human responses were designated as + if T cell reactivity against T2 cells presenting the indicated peptide (IFN-γ ELISA) was >30 pg/ml and more than 2 fold higher than reactivity versus T2 cells pulsed with the negative control HIV-nef190-198 peptide)”; (donor Mel4, melanoma patient) “+ (Human responses were designated as + if T cell reactivity against T2 cells presenting the indicated peptide (IFN-γ ELISA) was >30 pg/ml and more than 2 fold higher than reactivity versus T2 cells pulsed with the negative control HIV-nef190-198 peptide)”; (donor Mel6, melanoma patient) “+ (Human responses were designated as + if T cell reactivity against T2 cells presenting the indicated peptide (IFN-γ ELISA) was >30 pg/ml and more than 2 fold higher than reactivity versus T2 cells pulsed with the negative control HIV-nef190-198 peptide)”; (donor Mel9, melanoma patient) “+ (Human responses were designated as + if T cell reactivity against T2 cells presenting the indicated peptide (IFN-γ ELISA) was >30 pg/ml and more than 2 fold higher than reactivity versus T2 cells pulsed with the negative control HIV-nef190-198 peptide)”. Further, the “Specific CD8+ T cell Production of IFN-γ” value was “+ (Human responses were designated as + if T cell reactivity against T2 cells presenting the indicated peptide (IFN-γ ELISA) was >30 pg/ml and more than 2 fold higher than reactivity versus T2 cells pulsed with the negative control HIV-nef190-198 peptide)” (donor ND3, normal donor); “+ (Human responses were designated as + if T cell reactivity against T2 cells presenting the indicated peptide (IFN-γ ELISA) was >30 pg/ml and more than 2 fold higher than reactivity versus T2 cells pulsed with the negative control HIV-nef190-198 peptide)” (donor ND5, normal donor).

Consider LAALPHSCL (listed as Homo sapiens), for which, where the note is “number of responding donors of 8, response = IFN-γ >30 pg/ml and >2 fold HIV-nef control”, the “Specific CD8+ T Cell Response, HLA-A2+ Normal Donors (of 8)” value is given as 0. Also, under “number of responding patients of 10, response = IFN-γ >30 pg/ml and >2 fold HIV-nef control”, the “Specific CD8+ T Cell Response, HLA-A2+ Melanoma Patients (of 10)” value is on record as 5.

With “RGS5: RGS5-derived peptide 5-13 pulsed onto DC or DC.IL12 (LAALPHSCL; listed as Homo sapiens)”, the “Specific CD8+ T cell Production of IFN-γ” value (donor Mel1, melanoma patient) is “+ (Human responses were designated as + if T cell reactivity against T2 cells presenting the indicated peptide (IFN-γ ELISA) was >30 pg/ml and more than 2 fold higher than reactivity versus T2 cells pulsed with the negative control HIV-nef190-198 peptide)”; the “Specific CD8+ T cell Production of IFN-γ” value (donor Mel2, melanoma patient) is “+ (Human responses were designated as + if T cell reactivity against T2 cells presenting the indicated peptide (IFN-γ ELISA) was >30 pg/ml and more than 2 fold higher than reactivity versus T2 cells pulsed with the negative control HIV-nef190-198 peptide)”; the “Specific CD8+ T cell Production of IFN-γ” value (donor Mel4, melanoma patient) is “+ (Human responses were designated as + if T cell reactivity against T2 cells presenting the indicated peptide (IFN-γ ELISA) was >30 pg/ml and more than 2 fold higher than reactivity versus T2 cells pulsed with the negative control HIV-nef190-198 peptide)”; the “Specific CD8+ T cell Production of IFN-γ” value (donor Mel6, melanoma patient) was “+ (Human responses were designated as + if T cell reactivity against T2 cells presenting the indicated peptide (IFN-γ ELISA) was >30 pg/ml and more than 2 fold higher than reactivity versus T2 cells pulsed with the negative control HIV-nef190-198 peptide)”; the “Specific CD8+ T cell Production of IFN-γ” value (donor Mel8, melanoma patient) was “+ (Human responses were designated as + if T cell reactivity against T2 cells presenting the indicated peptide (IFN-γ ELISA) was >30 pg/ml and more than 2 fold higher than reactivity versus T2 cells pulsed with the negative control HIV-nef190-198 peptide)”.

As to “TEM1: TEM1-derived peptide 691-700 pulsed onto DC or DC.IL12 (LLVPTCVFLV; listed as Homo sapiens)”, the “Specific CD8+ T cell Production of IFN-γ” value (donor Mel1, melanoma patient) was “+ (Human responses were designated as + if T cell reactivity against T2 cells presenting the indicated peptide (IFN-γ ELISA) was >30 pg/ml and more than 2 fold higher than reactivity versus T2 cells pulsed with the negative control HIV-nef190-198 peptide)”; the “Specific CD8+ T cell Production of IFN-γ” value (donor Mel4, melanoma patient) is “+ (Human responses were designated as + if T cell reactivity against T2 cells presenting the indicated peptide (IFN-γ ELISA) was >30 pg/ml and more than 2 fold higher than reactivity versus T2 cells pulsed with the negative control HIV-nef190-198 peptide)”; the “Specific CD8+ T cell Production of IFN-γ” value (donor Mel7, melanoma patient) was “+ (Human responses were designated as + if T cell reactivity against T2 cells presenting the indicated peptide (IFN-γ ELISA) was >30 pg/ml and more than 2 fold higher than reactivity versus T2 cells pulsed with the negative control HIV-nef190-198 peptide)”; the “Specific CD8+ T cell Production of IFN-γ” value (donor Mel8, melanoma patient) is “+ (Human responses were designated as + if T cell reactivity against T2 cells presenting the indicated peptide (IFN-γ ELISA) was >30 pg/ml and more than 2 fold higher than reactivity versus T2 cells pulsed with the negative control HIV-nef190-198 peptide)”; the “Specific CD8+ T cell Production of IFN-γ” value (donor ND1, normal donor) is “+ (Human responses were designated as + if T cell reactivity against T2 cells presenting the indicated peptide (IFN-γ ELISA) was >30 pg/ml and more than 2 fold higher than reactivity versus T2 cells pulsed with the negative control HIV-nef190-198 peptide)”; the “Specific CD8+ T cell Production of IFN-γ” value (donor ND2, normal donor) was “+ (Human responses were designated as + if T cell reactivity against T2 cells presenting the indicated peptide (IFN-γ ELISA) was >30 pg/ml and more than 2 fold higher than reactivity versus T2 cells pulsed with the negative control HIV-nef190-198 peptide)”. Further, the “Specific CD8+ T cell Production of IFN-γ” value by setting is: (donor ND3, normal donor) “+ (Human responses were designated as + if T cell reactivity against T2 cells presenting the indicated peptide (IFN-γ ELISA) was >30 pg/ml and more than 2 fold higher than reactivity versus T2 cells pulsed with the negative control HIV-nef190-198 peptide)”; (donor ND5, normal donor) “+ (Human responses were designated as + if T cell reactivity against T2 cells presenting the indicated peptide (IFN-γ ELISA) was >30 pg/ml and more than 2 fold higher than reactivity versus T2 cells pulsed with the negative control HIV-nef190-198 peptide)”.

For the origin of these results see patent US9937250B2, “Immunogenic tumor associated stromal cell antigen peptides and methods of their use” (University of Pittsburgh—Of the Commonwealth System of …, priority 2011, dated 2018).
